# According to PubChem BioAssay AID2060505 (Molecular Pharmacology Branch, DTP, NCI, 2025):
# Tested on: 633275-114-R-J1-PDC complex spheroids, viability
# Assay: Anticancer human tumor 633275-114-R-J1-PDC patient-derived endometrial adenocarcinoma cell line growth inhibition [GQUAD]
# Conditions: for IC50: curve of first compound; for viability, T/C: stronger effect = lower value
# Procedure, shortened: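 Tumor cells were grown as complex spheroids with HUVEC endothelial cells and mesenchymal stem cells as stroma. G-quadruplex stabilizers were combined with targeted agents over half-log dilutions from near the clinical Cmax, or from 10 microM.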
# [1] = second compound 0.0316 µM, first compound 0.0316 µM
# [2] = second compound 0.0316 µM, first compound 0.316 µM
# [3] = second compound 0.1 µM, first compound 0.0316 µM
# [4] = second compound 0.1 µM, first compound 0.316 µM
# [5] = second compound 0.316 µM, first compound 0.0316 µM
# [6] = second compound 0.316 µM, first compound 0.316 µM
# [7] = second compound 1 µM, first compound 0.0316 µM
# [8] = second compound 1 µM, first compound 0.316 µM
# [9] = second compound 3.16 µM, first compound 0.0316 µM
# [10] = second compound 3.16 µM, first compound 0.316 µM
# [11] = second compound 10 µM, first compound 0.0316 µM
# [12] = second compound 10 µM, first compound 0.316 µM
# [13] = second compound 0.0316 µM, first compound 0.1 µM
# [14] = second compound 0.0316 µM, first compound 1 µM
# [15] = second compound 0.0316 µM, first compound 3.16 µM
# [16] = second compound 0.0316 µM, first compound 10 µM
# [17] = second compound 0.1 µM, first compound 0.1 µM
# [18] = second compound 0.1 µM, first compound 1 µM
# [19] = second compound 0.1 µM, first compound 3.16 µM
# [20] = second compound 0.1 µM, first compound 10 µM
# [21] = second compound 0.316 µM, first compound 0.1 µM
# [22] = second compound 0.316 µM, first compound 1 µM
# [23] = second compound 0.316 µM, first compound 3.16 µM
# [24] = second compound 0.316 µM, first compound 10 µM
# [25] = second compound 1 µM, first compound 0.1 µM
# [26] = second compound 1 µM, first compound 1 µM
# [27] = second compound 1 µM, first compound 3.16 µM
# [28] = second compound 1 µM, first compound 10 µM
# [29] = second compound 3.16 µM, first compound 0.1 µM
# [30] = second compound 3.16 µM, first compound 1 µM
# [31] = second compound 3.16 µM, first compound 3.16 µM
# [32] = second compound 3.16 µM, first compound 10 µM
# [33] = second compound 10 µM, first compound 0.1 µM
# [34] = second compound 10 µM, first compound 1 µM
# [35] = second compound 10 µM, first compound 3.16 µM
# [36] = second compound 10 µM, first compound 10 µM
# 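Further: spheroids exposed to the agents for seven days.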
# 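Wherever viability, T/C is given: percent of DMSO vehicle control viability which is 100%.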
structure (smiles),measurement,setting,value
CCc1c2c(nc3ccc(O)cc13)-c1cc3c(c(=O)n1C2)COC(=O)[C@]3(O)CC + Cc1cnc(CNC(=O)c2c(=O)c3ccc(N4CCCN(C)CC4)nc3n3c2sc2ccccc23)cn1,IC50,second compound 0.0316 µM,1.6 nM
same,IC50,second compound 0.1 µM,< 0.999 nM
same,IC50,second compound 0.316 µM,< 0.999 nM
same,IC50,second compound 1 µM,< 0.999 nM
same,IC50,second compound 3.16 µM,< 0.999 nM
same,IC50,second compound 10 µM,< 0.999 nM
same,"viability, T/C","second compound 0.0316 µM, first compound 0.000999 µM",57.4%
same,"viability, T/C","second compound 0.0316 µM, first compound 0.00316 µM",38.5%
same,"viability, T/C","second compound 0.0316 µM, first compound 0.00999 µM",32.5%
same,"viability, T/C",[1],32.5%
same,"viability, T/C","second compound 0.0316 µM, first compound 0.0999 µM",26.6%
same,"viability, T/C",[2],24.4%
same,"viability, T/C","second compound 0.1 µM, first compound 0.000999 µM",46.3%
same,"viability, T/C","second compound 0.1 µM, first compound 0.00316 µM",36.2%
same,"viability, T/C","second compound 0.1 µM, first compound 0.00999 µM",35.4%
same,"viability, T/C",[3],32.4%
same,"viability, T/C","second compound 0.1 µM, first compound 0.0999 µM",27.2%
same,"viability, T/C",[4],25.2%
same,"viability, T/C","second compound 0.316 µM, first compound 0.000999 µM",42.9%
same,"viability, T/C","second compound 0.316 µM, first compound 0.00316 µM",37.9%
same,"viability, T/C","second compound 0.316 µM, first compound 0.00999 µM",33.9%
same,"viability, T/C",[5],31.2%
same,"viability, T/C","second compound 0.316 µM, first compound 0.0999 µM",30%
same,"viability, T/C",[6],26.8%
same,"viability, T/C","second compound 1 µM, first compound 0.000999 µM",40.4%
same,"viability, T/C","second compound 1 µM, first compound 0.00316 µM",35.3%
same,"viability, T/C","second compound 1 µM, first compound 0.00999 µM",35.9%
same,"viability, T/C",[7],30.2%
same,"viability, T/C","second compound 1 µM, first compound 0.0999 µM",27.8%
same,"viability, T/C",[8],18.7%
same,"viability, T/C","second compound 3.16 µM, first compound 0.000999 µM",34%
same,"viability, T/C","second compound 3.16 µM, first compound 0.00316 µM",31.9%
same,"viability, T/C","second compound 3.16 µM, first compound 0.00999 µM",28.3%
same,"viability, T/C",[9],27%
same,"viability, T/C","second compound 3.16 µM, first compound 0.0999 µM",24.9%
same,"viability, T/C",[10],13.4%
same,"viability, T/C","second compound 10 µM, first compound 0.000999 µM",30.3%
same,"viability, T/C","second compound 10 µM, first compound 0.00316 µM",28%
same,"viability, T/C","second compound 10 µM, first compound 0.00999 µM",26.4%
same,"viability, T/C",[11],27.8%
same,"viability, T/C","second compound 10 µM, first compound 0.0999 µM",21.1%
same,"viability, T/C",[12],0.26%
Nc1ccn(C2OC(CO)C(O)C2(F)F)c(=O)n1 (stereo unspecified) + Cc1[nH]c2ccc(F)cc2c1-c1nc2c3cccnc3c3ncccc3c2[nH]1,IC50,second compound 0.0316 µM,< 31.6 nM
same,IC50,second compound 0.1 µM,< 31.6 nM
same,IC50,second compound 0.316 µM,< 31.6 nM
same,IC50,second compound 1 µM,< 31.6 nM
same,IC50,second compound 3.16 µM,< 31.6 nM
same,IC50,second compound 10 µM,< 31.6 nM
same,"viability, T/C",[1],29.7%
same,"viability, T/C",[13],25.6%
same,"viability, T/C",[2],25.9%
same,"viability, T/C",[14],26.4%
same,"viability, T/C",[15],22.9%
same,"viability, T/C",[16],24.4%
same,"viability, T/C",[3],33.2%
same,"viability, T/C",[17],24.3%
same,"viability, T/C",[4],26.4%
same,"viability, T/C",[18],27.3%
same,"viability, T/C",[19],24.8%
same,"viability, T/C",[20],20.9%
same,"viability, T/C",[5],31.2%
same,"viability, T/C",[21],28.8%
same,"viability, T/C",[6],26.1%
same,"viability, T/C",[22],24.2%
same,"viability, T/C",[23],27.1%
same,"viability, T/C",[24],19.9%
same,"viability, T/C",[7],30.9%
same,"viability, T/C",[25],25.6%
same,"viability, T/C",[8],26%
same,"viability, T/C",[26],25.9%
same,"viability, T/C",[27],24%
same,"viability, T/C",[28],20.1%
same,"viability, T/C",[9],26.1%
same,"viability, T/C",[29],24.4%
same,"viability, T/C",[10],22.6%
same,"viability, T/C",[30],23.4%
same,"viability, T/C",[31],25.7%
same,"viability, T/C",[32],17.9%
same,"viability, T/C",[11],26.8%
same,"viability, T/C",[33],24.5%
same,"viability, T/C",[12],23.8%
same,"viability, T/C",[34],24.1%
same,"viability, T/C",[35],22.5%
same,"viability, T/C",[36],18.8%
C=CC(=O)N1CCN(c2nc(=O)n(-c3c(C)ccnc3C(C)C)c3nc(-c4c(O)cccc4F)c(F)cc23)C(C)C1 (stereo unspecified) + Cc1cnc(CNC(=O)c2c(=O)c3ccc(N4CCCN(C)CC4)nc3n3c2sc2ccccc23)cn1,IC50,second compound 0.0316 µM,> 10000 nM
same,IC50,second compound 0.1 µM,> 10000 nM
same,IC50,second compound 0.316 µM,< 31.6 nM
same,IC50,second compound 1 µM,< 31.6 nM
same,IC50,second compound 3.16 µM,< 31.6 nM
same,IC50,second compound 10 µM,< 31.6 nM
same,"viability, T/C",[1],67.1%
same,"viability, T/C",[13],62.3%
same,"viability, T/C",[2],78.3%
same,"viability, T/C",[14],69%
same,"viability, T/C",[15],65.4%
same,"viability, T/C",[16],68.1%
same,"viability, T/C",[3],57.4%
same,"viability, T/C",[17],57.8%
same,"viability, T/C",[4],55.4%
same,"viability, T/C",[18],57%
same,"viability, T/C",[19],59.8%
same,"viability, T/C",[20],51.6%
same,"viability, T/C",[5],46.8%
same,"viability, T/C",[21],44.9%
same,"viability, T/C",[6],47.6%
same,"viability, T/C",[22],53.5%
same,"viability, T/C",[23],54.1%
same,"viability, T/C",[24],46.8%
same,"viability, T/C",[7],41.6%
same,"viability, T/C",[25],48.2%
same,"viability, T/C",[8],45.7%
same,"viability, T/C",[26],42.9%
same,"viability, T/C",[27],47.7%
same,"viability, T/C",[28],41%
same,"viability, T/C",[9],37.3%
same,"viability, T/C",[29],36.5%
same,"viability, T/C",[10],39.4%
same,"viability, T/C",[30],42.6%
same,"viability, T/C",[31],42.4%
same,"viability, T/C",[32],37.6%
same,"viability, T/C",[11],32.3%
same,"viability, T/C",[33],34.1%
same,"viability, T/C",[12],34%
same,"viability, T/C",[34],35.9%
same,"viability, T/C",[35],39.7%
same,"viability, T/C",[36],30.2%
